Test results from patent US11571480B2, “Multi-ligand drug conjugates and uses thereof” (priority 2015, dated 2023).

Legend:
[1] = tested on: human nasopharyngeal cancer cell line KB; test: Cytotoxicity test of conjugate LDC13B; format: cell-based
Protocol: (§1) Culture medium: RPMI 1640 Medium, no folic acid
1) human nasopharyngeal cancer cell line KB, human colon carcinoma HCT-116, human prostatic cancer cell PC-3, human gastric cancer cell line GTL-16, human endometrial cancer cell HEC-1A, and human gastric cancer cell N87 were incubated at 37° C., 5% CO2 in RPMI 1640 medium containing 10% fetal bovine serum, the cells were passaged every 2-3 days.
2) human nasopharyngeal cancer cell line KB, human colon carcinoma HCT-116, human prostatic cancer cell PC-3, human gastric cancer cell line GTL-16, human endometrial cancer cell HEC-1A, and human gastric cancer cell N87 were plated at 1×10^3 cells per well (96-well plate) and incubated for 8-12 h at 37° C., 5% CO2.
(§2) 3) Stock solutions of LDC conjugates or control were prepared in PBS solution. 100 μL/well of serially diluted LDC conjugates or control was added to the cells in the plate and incubated for 15-30 min at 37° C., 5% CO2. The culture medium in the wells was then removed by aspiration and the cells were incubated in fresh culture medium without conjugates (150 μL/well) for 2-3 days at 37° C., 5% CO2.
(§3) 4) CellTiter 96® Aqueous One Solution Cell Proliferation Assay (Promega) was added to each well to measure the amount of […] cells, and the plate was incubated in an incubator for 1 h at 37° C., 5% CO2.
(§4) 5) the plate was read at 490 nm on a microplate reader, and the cell survivals were compared for cells with or without the treatment of LDC conjugates. The LDC drug concentrations that are required for 50% cell death (IC50 values) were determined.

[2] = tested on: Transplanted H460 tumor; test: Inhibitory assay of conjugate LDC13B against xenograf tumors; format: in vivo, nude mice; conditions: for Body weight of mice / Tumor size: H460 tumor
Protocol: (§5) Animal: nude mice, aged 6-8 weeks, female
1) human large cell lung cancer cell H460 were incubated at 37° C., 5% CO2 in IMDM medium containing 10% fetal bovine serum, the cells were passaged every 2-3 days.
2) generation of tumors: 7×10^6 tumor cells were injected subcutaneously into the back of nude mice, and the mice were grouped for treatment after the tumor sizes were as large as about 200 mm^3.
3) treatment: 3 mice/group, treated with LDC13B as well as controls MMAE and PBS with doses of 2.5 and 5 mg/kg every 3 days, four injections.
(§6) 4) the physical performance, body weights and tumor sizes of the animals were monitored. The number of animal death was recorded during the experiment.

[3] = tested on: melanoma cell line A375; test: Cytotoxicity test of conjugate LDC1013; format: cell-based
Protocol: as §1
1) human nasopharyngeal cancer cell line KB, melanoma cell line A375, and human lung cancer cell H460 were incubated at 37° C., 5% CO2 in RPMI 1640 medium containing 10% fetal bovine serum, the cells were passaged every 2-3 days.
2) human nasopharyngeal cancer cell line KB, melanoma cell line A375, and human lung cancer cell H460 were plated at 1×10^3 cells per well (96-well plate) and incubated for 8-12 h at 37° C., 5% CO2.
as §2, §3, §4

[4] = tested on: Transplanted HCC1954 tumor; test: Inhibitory assay of conjugate LDC1013 against xenograf tumors; format: in vivo, nude mice; conditions: for Body weight of mice / Tumor size: HCC1954 tumor
Protocol: as §5
1) Human breast cancer cells HCC1954 were incubated at 37° C., 5% CO2 in IMDM medium containing 10% fetal bovine serum, the cells were passaged every 2-3 days.
2) generation of tumors: 7×10^6 tumor cells were injected subcutaneously into the back of nude mice, and the mice were grouped for treatment after the tumor sizes were as large as about 180-320 mm^3. […]
as §6

[5] = 2.5 mg/kg, 3 days after Injection 1
[6] = 2.5 mg/kg, 3 days after Injection 2
[7] = 2.5 mg/kg, 3 days after Injection 3
[8] = 2.5 mg/kg, 3 days after Injection 4
[9] = 5 mg/kg, 3 days after Injection 1
[10] = 5 mg/kg, 3 days after Injection 2
[11] = 5 mg/kg, 3 days after Injection 3
[12] = 5 mg/kg, 3 days after Injection 4
[13] = 2.5 mg/kg, 4 days after Injection 5
[14] = 2.5 mg/kg, 5 days after Injection 6
[15] = 2.5 mg/kg, 6 days after Injection 7
[16] = 5 mg/kg, 4 days after Injection 5
[17] = 5 mg/kg, 5 days after Injection 6

SMILES: CC[C@H](C)[C@@H]([C@@H](CC(=O)N1CCC[C@H]1[C@H](OC)[C@@H](C)C(=O)N[C@H](C)[C@@H](O)c1ccccc1)OC)N(C)C(=O)[C@@H](NC(=O)[C@H](C(C)C)N(C)C(=O)OCc1ccc(NC(=O)[C@H](CCCNC(N)=O)NC(=O)[C@@H](NC(=O)CCCCCN2C(=O)CC(SC[C@H](NC(=O)CC[C@H](NC(=O)c3ccc(NCc4cnc5[nH]c(N)nc(=O)c5n4)cc3)C(=O)O)C(=O)NCCCC[C@@H](NC(=O)[C@H](Cc3ccc(O)cc3)NC(=O)[C@H](CO)NC(=O)[C@H](Cc3c[nH]c4ccccc34)NC(=O)[C@H](Cc3c[nH]cn3)NC(=O)[C@@H]3CCC(=O)N3)C(=O)N[C@@H](CC(C)C)C(=O)N[C@@H](CCCNC(=N)N)C(=O)N3CCC[C@H]3C(=O)NCC(N)=O)C2=O)C(C)C)cc1)C(C)C (some centres unmarked) [LDC13B]
- more potent than either of the single-ligand drug conjugates LDC1 and LDC13A [1]: 2-10 fold
- tumor response (in words) ([2]; H460, 2.5 mg/kg dose): shrank rapidly
- tumor response (in words) ([2]; H460, after four injections at 5 mg/kg): completely disappeared
- Body weight of mice [2, 5]: 22.73 g
- Tumor size [2, 5]: 384 mm^3
- Body weight of mice [2, 6]: 22.65 g
- Tumor size [2, 6]: 384 mm^3
- Body weight of mice [2, 7]: 22.47 g
- Tumor size [2, 7]: 144 mm^3
- Body weight of mice [2, 8]: 21.76 g
- Tumor size [2, 8]: 144 mm^3
- Body weight of mice ([2]; 2.5 mg/kg, Before Injection): 22.7 g
- Tumor size ([2]; 2.5 mg/kg, Before Injection): 294 mm^3
- Body weight of mice [2, 9]: 18.36 g
- Tumor size [2, 9]: 144 mm^3
- Body weight of mice [2, 10]: 19.65 g
- Tumor size [2, 10]: 40 mm^3
- Body weight of mice [2, 11]: 18.21 g
- Tumor size [2, 11]: 18 mm^3
- Body weight of mice [2, 12]: 18.22 g
- Tumor size [2, 12]: 13.5 mm^3
- Body weight of mice ([2]; 5 mg/kg, Before Injection): 20.95 g
- Tumor size ([2]; 5 mg/kg, Before Injection): 196 mm^3

SMILES: CC[C@H](C)[C@@H]([C@@H](CC(=O)N1CCC[C@H]1[C@H](OC)[C@@H](C)C(=O)N[C@H](C)[C@@H](O)c1ccccc1)OC)N(C)C(=O)[C@@H](NC(=O)[C@H](C(C)C)N(C)C(=O)OCc1ccc(NC(=O)[C@H](CCCNC(N)=O)NC(=O)[C@@H](NC(=O)CCCCCN2C(=O)CC(SC[C@H](NC(=O)[C@H](CCCNC(=N)N)NC(=O)[C@H](CCCNC(=N)N)NC(=O)[C@H](CCCNC(=N)N)NC(=O)[C@H](CCCNC(=N)N)NC(=O)[C@H](CCCNC(=N)N)NC(=O)[C@H](CCCNC(=N)N)NC(=O)[C@H](CCCNC(=N)N)NC(=O)[C@H](CCCNC(=N)N)NC(=O)[C@@H](N)CCCNC(=N)N)C(=O)NCCCC[C@H](NC(=O)[C@H](Cc3ccc(O)cc3)NC(=O)[C@H](CO)NC(=O)[C@H](Cc3c[nH]c4ccccc34)NC(=O)[C@H](Cc3c[nH]cn3)NC(=O)[C@@H]3CCC(=O)N3)C(=O)N[C@@H](CC(C)C)C(=O)N[C@@H](CCCNC(=N)N)C(=O)N3CCC[C@H]3C(=O)NCC(N)=O)C2=O)C(C)C)cc1)C(C)C (some centres unmarked) [LDC1013]
- less toxic for A375 than for H460 and KB, respectively [3]: 10-100 fold
- tumor response (in words) ([4]; HCC1954, 7 doses at 2.5 mg/kg and 7 doses of 5 mg/kg injected every three days): completely eliminate
- Body weight of mice [4, 5]: 24.46 g
- Tumor size [4, 5]: 198 mm^3
- Body weight of mice [4, 6]: 24.54 g
- Tumor size [4, 6]: 198 mm^3
- Body weight of mice [4, 7]: 23.94 g
- Tumor size [4, 7]: 180 mm^3
- Body weight of mice [4, 8]: 24.3 g
- Tumor size [4, 8]: 113 mm^3
- Body weight of mice [4, 13]: 24.98 g
- Tumor size [4, 13]: 64 mm^3
- Body weight of mice [4, 14]: 24.73 g
- Tumor size [4, 14]: 22 mm^3
- Body weight of mice [4, 15]: 24.43 g
- Tumor size [4, 15]: 0 mm^3
- Body weight of mice ([4]; 2.5 mg/kg, Before Injection): 24.14 g
- Tumor size ([4]; 2.5 mg/kg, Before Injection): 180 mm^3
- Body weight of mice [4, 9]: 20.7 g
- Tumor size [4, 9]: 405 mm^3
- Body weight of mice [4, 10]: 20.43 g
- Tumor size [4, 10]: 405 mm^3
- Body weight of mice [4, 11]: 21.31 g
- Tumor size [4, 11]: 288 mm^3
- Body weight of mice [4, 12]: 21.15 g
- Tumor size [4, 12]: 88 mm^3
- Body weight of mice [4, 16]: 21.21 g
- Tumor size [4, 16]: 40 mm^3
- Body weight of mice [4, 17]: 20.49 g
- Tumor size [4, 17]: 0 mm^3
- Body weight of mice ([4]; 5 mg/kg, 6 days after Injection 7): 24.49 g
- Body weight of mice ([4]; 5 mg/kg, Before Injection): 21.92 g
- Tumor size ([4]; 5 mg/kg, Before Injection): 320 mm^3
